Assay results published in patent US20260091050A1, “ADVANTAGEOUS ANTI-HCV COMBINATION THERAPY” (Atea Pharmaceuticals, Inc., priority 2021, published 2026).

Experiments:
[1] = Head-to-head comparison of Compound 1 and Compound 1-A in dogs: plasma levels; assay type: in vivo; conditions: dog plasma, normalized to a dose of 25 mg/kg; 25 mg/kg
Protocol: A head-to-head comparison of dogs dosed with Compound 1 and Compound 1-A was conducted.

[2] = Plasma profiles of Compound 1 and metabolite 1-7 after single oral dose of Compound 1-A, Sprague-Dawley rats; assay type: in vivo; conditions: rat, single oral dose of Compound 1-A 500 mg/kg (0.5% CMC, 0.5% Tween 80 in water)
[3] = Plasma profiles of Compound 1 and metabolite 1-7 after single oral doses of Compound 1-A, cynomolgus monkeys; assay type: in vivo; conditions: monkey
[4] = test system: replicons containing the NS5B sequences from HCV laboratory reference strains (GT1a, 1b, 2a, 3a, 4a and 5a); assay: Replicons containing NS5B sequences from laboratory reference strains; assay type: cell-based; conditions: laboratory strains of HCV Genotypes 1-5
[5] = test system: replicons containing the NS5B sequences from HCV patient plasma samples (GT1a, 1b, 2a, 2b, 3a-1, 3a-2, 4a and 4d); assay: Replicons containing NS5B sequences from HCV patient plasma samples (clinical isolates); assay type: cell-based
GT1 HCV [6] = assay: Single ascending dose study of Compound 1-A in GT1-HCV infected patients (Part B); assay type: in vivo, human; conditions: single oral dose of Compound 1-A, plasma
Protocol: Subjects in Part B received a single dose of Compound 1-A in the fasting state. Patients were confined to the clinic from Day −1 to Day 6.
Part B was initiated after the safety (through Day 5) and plasma pharmacokinetic (through 24 h) data review from Cohort 3a in Part A. Available safety data (through Day 5) and pharmacokinetic data (through 24 h) was reviewed for the first cohort in Part B (Cohort 1b) before enrolling subsequent Part B cohorts. Subsequent Part B cohorts were only dosed following review of available safety and pharmacokinetic data from the respective doses in Part A as well as available safety (through Day 5) from the prior Part B cohorts.
Patients infected with HCV were treatment-naïve, non-cirrhotic GT1-infected subjects with a viral load of ≥5 log10 IU/mL.
Baseline was defined as the mean of Day −1 and Day 1 (pre-dose). […] The mean maximum HCV RNA reduction 24 hours post-dose following a single 300 mg dose was 1.7 log10 IU/mL and this compares to a −2 log 10 IU/mL reduction after 1 day of 400 mg of sofosbuvir monotherapy in GT1a HCV-infected subjects. The mean maximum HCV RNA reduction 24 hours post-dose following a single 100 mg dose was 0.8 log10 IU/mL. The mean 10 maximum HCV RNA reduction was 2.2 log10 IU/mL following a single 400 mg dose.

GT1 HCV [7] = assay: Multiple dose study, 7 days QD, non-cirrhotic GT1 HCV-infected patients (Part C); assay type: in vivo, human; conditions: Part C; for Mean ± SD HCV RNA change from baseline to 24 h / Mean ± SD HCV RNA maximum change from baseline: N = 6
Protocol: (§1) Doses were administered as the Compound 1-A salt base. The free base Compound 1 equivalent is often given in parenthesis.
(§2) Part C was a randomized, double-blind, placebo-controlled MAD study divided into three cohorts. […] The dose escalation only proceeded following satisfactory review of the data.
(§3) HCV-infected patients were treatment-naïve with HCV RNA ≥5 log 10 IU/mL. HCV RNA was quantified using COBAS® AmpliPrep TaqMAN® v2.0 with LLQ of 15 IU/mL. Plasma drug levels were measured using LC-MS/MS. […] Mean ages of enrolled subjects were 44, 39, and 56 years in the non-cirrhotic GT1b 600 mg dose cohort, non-cirrhotic GT3 cohort, and the cirrhotic cohort, respectively.

[8] = Three-part study (Parts C, D, E) of Compound 1-A: overall safety/tolerability and pharmacokinetics; assay type: in vivo, human; conditions: for AUC(0-inf): human, in vivo
Protocol: as §2
HCV-infected patients were treatment-naïve with HCV RNA ≥5 log 10 IU/mL. […] Plasma drug levels were measured using LC-MS/MS.

[9] = Solubility in biorelevant test medias (water, SGF, FaSSIF, FeSSIF); conditions: for Appearance: solubility test; for Descriptive term: solubility
GT3 HCV = assay: 600 mg QD for 7 days in non-cirrhotic GT3 HCV-infected patients (Part D); assay type: in vivo, human; conditions: Part D, 600 mg/day, N = 6
Protocol: as §1, §2, §3

GT1, GT2, or GT3 HCV = assay: 600 mg QD for 7 days in Child-Pugh A cirrhotic patients with GT1, GT2 or GT3 HCV (Part E); assay type: in vivo, human; conditions: Part E, 600 mg/day
Protocol: Doses were administered as the Compound 1-A salt base. The free base Compound 1 equivalent is often given in parenthesis. […]
as §3

HCV NS5A = conditions: wide range of HCV genotypes and common clinical mutants; cited from earlier work
[10] = single oral dose of Compound 1-A 30 mg/kg (powder in capsules)
[11] = single oral dose of Compound 1-A 100 mg/kg (powder in capsules)
[12] = single oral dose of Compound 1-A 300 mg/kg (powder in capsules)

CNc1nc(N)nc2c1ncn2[C@@H]1O[C@H](CO[P@@](=O)(N[C@@H](C)C(=O)OC(C)C)Oc2ccccc2)[C@@H](O)[C@@]1(C)F [Compound 1, isopropyl((S)-(((2R,3R,4R,5R)-5-(2-amino-6-(methylamino)-9H-purin-9-yl)-4-fluoro-3-hydroxy-4-methyltetrahydrofuran-2-yl)methoxy)(phenoxy)phosphoryl)-L-alaninate]
Mean Dose-normalized AUC(0-4 hr) for Compound 1 [1]: 0.2 µM·h
AUC0-last [2]: 78.2 ng·h/mL
Cmax [2]: 60.8 ng/mL
Tmax [2]: 15 min
AUC0-last [3, 10]: 176 ng·h/mL
Cmax [3, 10]: 63.5 ng/mL
Tmax [3, 10]: 30 to 120 min
AUC0-last [3, 11]: 1100 ng·h/mL
Cmax [3, 11]: 783 ng/mL
Tmax [3, 11]: 60 to 120 min
AUC0-last [3, 12]: 1600 ng·h/mL
Cmax [3, 12]: 501 ng/mL
EC50 values, times lower than (more potent than) sofosbuvir [4]: 6-11 times
EC95 ([5]; HCV GT1): approximately 21.7 ng/mL equivalents of metabolite 1-7
EC95 ([5]; HCV GT2): ~11.6 ng/mL equivalents of metabolite 1-7
EC95 ([5]; HCV GT3): ~17.5 ng/mL equivalents of metabolite 1-7
EC95 values, times lower than sofosbuvir ([5]; clinical isolates of all HCV genotypes tested): 7-33 times
EC95 ([5]; clinical isolates, all tested genotypes): < 80 nM
time within which the parent is metabolized (GT1 HCV [6]): ≤ 8 h
half-life (GT1 HCV [7]; daily dosing for 7 days): short half-life
estimated fraction absorbed ([8]; based on urine recovery): ~50%
AUC(0-inf) ([8]; 150 mg/d, AUC Day 1 (AUCinf for Compound 1), Part C, 150 mg/d (n=6), Day 1): 492 ± 141 ng·h/mL
AUC(0-inf) ([8]; 150 mg/d, AUC SS (AUCinf for Compound 1), Part C, 150 mg/d (n=6), steady state): 475 ± 301 ng·h/mL
AUC(0-inf) ([8]; 300 mg/d, AUC Day 1 (AUCinf for Compound 1), Part C, 300 mg/d (n=6), Day 1): 1950 ± 1120 ng·h/mL
AUC(0-inf) ([8]; 300 mg/d, AUC SS (AUCinf for Compound 1), Part C, 300 mg/d (n=6), steady state): 1510 ± 976 ng·h/mL
AUC(0-inf) ([8]; 600 mg/d, AUC Day 1 (AUCinf for Compound 1), Part C, 600 mg/d (n=6), Day 1): 3340 ± 1500 ng·h/mL
AUC(0-inf) ([8]; 600 mg/d, AUC Day 1 (AUCinf for Compound 1), Part D, 600 mg/d (n=6), Day 1): 3330 ± 1240 ng·h/mL
AUC(0-inf) ([8]; 600 mg/d, AUC Day 1 (AUCinf for Compound 1), Part E, 600 mg/d (n=6), Day 1): 3320 ± 1470 ng·h/mL
AUC(0-inf) ([8]; 600 mg/d, AUC SS (AUCinf for Compound 1), Part C, 600 mg/d (n=6), steady state): 4040 ± 2090 ng·h/mL
AUC(0-inf) ([8]; 600 mg/d, AUC SS (AUCinf for Compound 1), Part D, 600 mg/d (n=6), steady state): 3750 ± 2280 ng·h/mL
AUC(0-inf) ([8]; 600 mg/d, AUC SS (AUCinf for Compound 1), Part E, 600 mg/d (n=6), steady state): 3530 ± 1600 ng·h/mL
Appearance ([9]; FaSSIF): Turbid
Appearance ([9]; FeSSIF): Turbid
Appearance ([9]; SGF): Clear Solution
Appearance ([9]; Water): Clear Solution
Descriptive term ([9]; FaSSIF): Slightly Soluble
Descriptive term ([9]; FeSSIF): Slightly Soluble
Descriptive term ([9]; SGF): Sparingly
Descriptive term ([9]; Water): Slightly Soluble

COC(=O)N[C@H](C(=O)N1CCC[C@H]1c1ncc(-c2cc(F)c3c(c2)O[C@@H](c2cnc(C4CC4)s2)n2c-3cc3cc(-c4cnc([C@@H]5CCCN5C(=O)[C@@H](NC(=O)OC)C(C)C)[nH]4)ccc32)[nH]1)C(C)C [Compound 2, dimethyl N,N′-([(6S)-6-(2-Cyclopropyl-1,3-thiazol-5-yl)-1-fluoro-6H-indolo[1,2-c][1,3]benzoxazine-3,10-diyl]bis{1H-imidazole-5,2-diyl-(2S)-pyrrolidine-2,1-diyl[(2S)-3-methyl-1-oxobutane-1,2-diyl]})dicarbamate]
Mean ± SD HCV RNA change from baseline to 24 h (GT1 HCV [7]; 150 mg/day): 1.2 ± 0.3 log10 IU/mL
Mean ± SD HCV RNA maximum change from baseline (GT1 HCV [7]; 150 mg/day): 2.6 ± 1.1 log10 IU/mL
Mean ± SD HCV RNA change from baseline to 24 h (GT1 HCV [7]; 300 mg/day): 1.9 ± 0.2 log10 IU/mL
Mean ± SD HCV RNA maximum change from baseline (GT1 HCV [7]; 300 mg/day): 4.0 ± 0.4 log10 IU/mL
Mean ± SD HCV RNA change from baseline to 24 h (GT1 HCV [7]; 600 mg/day): 2.1 ± 0.2 log10 IU/mL
Mean ± SD HCV RNA maximum change from baseline (GT1 HCV [7]; 600 mg/day): 4.4 ± 0.7 log10 IU/mL
Mean ± SD HCV RNA change from baseline to 24 h (GT3 HCV): 2.3 ± 0.3 log10 IU/mL
Mean ± SD HCV RNA maximum change from baseline (GT3 HCV): 4.5 ± 0.3 log10 IU/mL
Individual HCV RNA maximum change from baseline (GT1, GT2, or GT3 HCV; GT1b individual subjects, listed as Compd 2): GT1b: 4.0, log10 IU/mL
Individual HCV RNA maximum change from baseline (GT1, GT2, or GT3 HCV; GT2 individual subject): GT2: 4.8 log10 IU/mL
Mean ± SD HCV RNA change from baseline to 24 h (GT1, GT2, or GT3 HCV; N = 6): 2.4 ± 0.2 log10 IU/mL
Mean ± SD HCV RNA maximum change from baseline (GT1, GT2, or GT3 HCV; N = 6): 4.6 ± 0.5 log10 IU/mL
affinity for HCV NS5A (HCV NS5A): sub- to low-picomolar
